Measured values: paper PMC6151529, “Design, Synthesis and Biological Evaluation of N,N-Substituted Amine Derivatives as Cholesteryl Ester Transfer Protein Inhibitors” (Molecules : A Journal of Synthetic Chemistry and Natural …, 2017)

Experiments:
[1] = target: T1, CYP1A2 (Homo sapiens, UniProt P05177); assay: Cytochrome P450 inhibition assay, CYP1A2; type: in vitro ADME; details: 10 μM compound, human liver microsomes 0.25 mg/mL, substrate phenacetin
T1 construct: from tissue; host or cells: human liver microsomes
T1 sequence (P05177 1-516): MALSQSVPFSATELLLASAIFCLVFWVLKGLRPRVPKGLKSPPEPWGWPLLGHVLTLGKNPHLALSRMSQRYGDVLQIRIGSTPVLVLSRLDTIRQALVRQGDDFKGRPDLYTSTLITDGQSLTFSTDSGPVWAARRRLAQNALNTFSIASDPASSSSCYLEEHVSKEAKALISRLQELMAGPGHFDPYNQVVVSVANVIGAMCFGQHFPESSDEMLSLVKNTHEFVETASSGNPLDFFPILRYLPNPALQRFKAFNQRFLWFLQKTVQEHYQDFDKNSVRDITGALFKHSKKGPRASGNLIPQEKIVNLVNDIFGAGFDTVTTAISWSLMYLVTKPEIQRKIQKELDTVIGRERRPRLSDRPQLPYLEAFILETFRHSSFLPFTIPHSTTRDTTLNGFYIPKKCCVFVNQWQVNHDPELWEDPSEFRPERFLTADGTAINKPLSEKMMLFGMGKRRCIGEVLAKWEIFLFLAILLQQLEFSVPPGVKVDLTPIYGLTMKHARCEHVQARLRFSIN
Protocol: (§1) Five specific probe substrates (CYP3A4, 2 μM midazolam; CYP2D6, 5 μM dextromethorphan; CYP2C9, 5 μM diclofenac; CYP1A2, 10 μM phenacetin; CYP2C19, 30 μM S-mephenytoin) were used to evaluated cytochrome P450 inhibition in human liver microsomes (0.25 mg/mL). A mixture of 20 μL specific probe substrate solution and 20 μL buffer solution (100 mM K3PO4, 33 mM MgCl2, pH = 7.4) was added compound (2 μL) and 158 μL human liver microsomes solution (0.25 mg/mL). The mixture were incubated at 37 °C for 10 min and another 10 min underwent after 20 μL NADPH solution added. Consecutively, 400 µL cold stop solution (200 ng/mL tolbutamide and 200 ng/mL labetalol in acetonitrile) was added to terminated the reaction. After the reactions were terminated, The plates were centrifuged (4000 rpm) at room temperature for 20 min, and the supernatants were analysed by LC/MS/MS.

[2] = target: T2, CYP2D6 (Homo sapiens, UniProt P10635); assay: Cytochrome P450 inhibition assay, CYP2D6; type: in vitro ADME; details: 10 μM compound, human liver microsomes 0.25 mg/mL, substrate dextromethorphan
T2 construct: from tissue; host or cells: human liver microsomes
T2 sequence (P10635 whole entry): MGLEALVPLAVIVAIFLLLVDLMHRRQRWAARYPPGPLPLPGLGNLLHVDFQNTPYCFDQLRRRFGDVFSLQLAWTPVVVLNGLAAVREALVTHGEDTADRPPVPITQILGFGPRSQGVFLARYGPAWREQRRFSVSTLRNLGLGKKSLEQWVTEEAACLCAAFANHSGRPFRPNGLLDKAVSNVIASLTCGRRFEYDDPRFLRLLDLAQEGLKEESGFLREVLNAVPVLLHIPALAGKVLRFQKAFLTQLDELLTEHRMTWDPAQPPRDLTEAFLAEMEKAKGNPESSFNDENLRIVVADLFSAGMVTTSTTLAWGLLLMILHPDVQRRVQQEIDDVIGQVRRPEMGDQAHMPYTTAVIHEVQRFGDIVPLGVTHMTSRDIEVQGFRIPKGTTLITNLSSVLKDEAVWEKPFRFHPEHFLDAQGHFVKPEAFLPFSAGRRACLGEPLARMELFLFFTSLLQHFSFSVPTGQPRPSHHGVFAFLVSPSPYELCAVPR
Protocol: as §1

[3] = target: T3, CETP (Homo sapiens, UniProt P11597); assay: CETP inhibitory activity, BODIPY-CE fluorescence assay (CETP RP Activity Assay Kit); type: biochemical
T3 construct: purchased Roar, New York, NY, USA RB-RPAK
T3 sequence (P11597 18-493): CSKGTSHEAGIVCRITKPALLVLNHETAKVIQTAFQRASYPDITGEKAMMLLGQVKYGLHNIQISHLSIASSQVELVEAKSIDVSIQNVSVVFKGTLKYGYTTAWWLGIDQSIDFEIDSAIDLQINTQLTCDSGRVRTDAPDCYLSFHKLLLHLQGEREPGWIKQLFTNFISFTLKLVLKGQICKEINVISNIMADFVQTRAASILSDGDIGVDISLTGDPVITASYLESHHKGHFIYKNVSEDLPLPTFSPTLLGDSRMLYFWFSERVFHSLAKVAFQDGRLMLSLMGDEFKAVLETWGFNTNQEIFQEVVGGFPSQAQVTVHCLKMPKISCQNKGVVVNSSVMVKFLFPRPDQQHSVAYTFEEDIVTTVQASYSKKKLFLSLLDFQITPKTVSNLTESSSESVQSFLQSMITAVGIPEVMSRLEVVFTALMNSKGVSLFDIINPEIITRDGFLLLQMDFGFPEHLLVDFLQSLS
Protocol: All tested compounds were dissolved in 100% DMSO, making sure the compound was dissolved totally. The solution was vibrated hard on an oscillator for more than 30 s and then stored in a nitrogen cabinet. The stock solutions (10 mM) were diluted with DMSO for an 8-point titration (1:5 serial dilutions) in a 96-well dilution plate. […] Compounds were tested at eight concentrations, and the fluorescence intensity were measured using a fluorometer (ExEm = 465/535 nm). The IC50 was determined from a curve fit of the data with each concentration tested three times.

[4] = target: T4, CYP3A4 (Homo sapiens, UniProt P08684); assay: Cytochrome P450 inhibition assay, CYP3A4; type: in vitro ADME; details: human liver microsomes, pH 7.4, probe midazolam (2 μM), 10 μM compound, human liver microsomes 0.25 mg/mL, substrate midazolam, read-out: CYPs Direct Inhibition Mean (10 μM) 3A4
T4 construct: from tissue; host or cells: human liver microsomes
T4 sequence (P08684 whole entry): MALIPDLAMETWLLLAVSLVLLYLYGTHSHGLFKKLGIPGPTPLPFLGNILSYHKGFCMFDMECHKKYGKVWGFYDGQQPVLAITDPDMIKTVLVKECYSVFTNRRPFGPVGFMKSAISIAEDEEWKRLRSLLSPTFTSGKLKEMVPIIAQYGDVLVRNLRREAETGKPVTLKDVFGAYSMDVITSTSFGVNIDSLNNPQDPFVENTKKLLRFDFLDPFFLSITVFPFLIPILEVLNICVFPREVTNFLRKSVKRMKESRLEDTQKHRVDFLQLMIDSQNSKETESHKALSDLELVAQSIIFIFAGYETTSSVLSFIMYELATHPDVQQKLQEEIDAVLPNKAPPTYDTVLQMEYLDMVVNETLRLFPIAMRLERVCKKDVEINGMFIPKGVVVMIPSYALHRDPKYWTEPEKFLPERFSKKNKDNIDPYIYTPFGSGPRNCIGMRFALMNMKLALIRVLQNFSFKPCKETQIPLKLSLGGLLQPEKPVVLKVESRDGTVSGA
Protocol: as §1

[5] = target: T5, CYP2C9 (Homo sapiens, UniProt P11712); assay: Cytochrome P450 inhibition assay, CYP2C9; type: in vitro ADME; details: human liver microsomes, pH 7.4, probe diclofenac (5 μM), 10 μM compound, human liver microsomes 0.25 mg/mL, substrate diclofenac, read-out: CYPs Direct Inhibition Mean (10 μM) 2C9
T5 construct: from tissue; host or cells: human liver microsomes
T5 sequence (P11712 whole entry): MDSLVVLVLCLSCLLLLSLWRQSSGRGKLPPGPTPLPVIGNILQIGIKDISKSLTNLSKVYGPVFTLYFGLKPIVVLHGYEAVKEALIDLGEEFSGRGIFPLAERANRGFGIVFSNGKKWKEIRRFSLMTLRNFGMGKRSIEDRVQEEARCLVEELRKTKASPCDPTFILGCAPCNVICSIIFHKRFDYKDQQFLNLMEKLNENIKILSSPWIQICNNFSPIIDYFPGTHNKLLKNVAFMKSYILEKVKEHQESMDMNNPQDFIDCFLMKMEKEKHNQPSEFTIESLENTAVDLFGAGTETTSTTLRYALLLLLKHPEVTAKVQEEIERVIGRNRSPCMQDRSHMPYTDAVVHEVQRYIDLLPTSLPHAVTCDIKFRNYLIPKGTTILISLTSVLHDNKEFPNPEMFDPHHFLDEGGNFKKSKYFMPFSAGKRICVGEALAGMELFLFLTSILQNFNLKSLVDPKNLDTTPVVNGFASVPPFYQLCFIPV
Protocol: as §1

[6] = Metabolic stability in human liver microsomes; type: in vitro ADME; details: 37 °C, NADPH, 0-60 min, read-out: HLM Stability (human liver microsomal intrinsic clearance)
Protocol: (§2) Ten μL (100 μM/L) of compound and 80 μL liver microsomes were mixture and incubated at 37 °C for 10 min, and then 10 μL NADPH regenerating system was added. Samples were obtained at 0 min, 5 min, 10 min, 20 min, 30 min and 60 min respectively, and 300 μL stop solution (cold in 4 °C, including 100 ng/mL tolbutamide and 100 ng/mL labetalol) was added to terminate the reaction. After oscillating for 10 min, the plates were centrifuged (4000 rpm) at room temperature for 20 min, and the supernatants were used for analyzation.

[7] = Metabolic stability in rat liver microsomes; type: in vitro ADME; details: 37 °C, NADPH, 0-60 min, read-out: RLM Stability (rat liver microsomal intrinsic clearance)
Protocol: as §2

COc1ccc(C(C)C)cc1C1=C(CN(Cc2cc(C(F)(F)F)cc(C(F)(F)F)c2)c2nnn(CC(=O)O)n2)CC(C)(C)CC1 [Compound 17, N-(3,5-Bis(trifluoromethyl)benzyl)-N-((2-(5-isopropyl-2-methoxyphenyl)-5,5-dimethylcyclohex-1-enyl)-methyl)-2H-tetrazol-5-amine-2-acetic acid]
CYPs Direct Inhibition Mean (10 μM) 1A2 [1]: No inhibition
inhibition at 10 min, 10 µM ([1]; pH 7.4, probe phenacetin (10 μM), read-out: CYPs Direct Inhibition Mean (10 μM) 1A2): < 20%
CYPs Direct Inhibition Mean (10 μM) 2D6 [2]: No inhibition
inhibition at 10 min, 10 µM ([2]; pH 7.4, probe dextromethorphan (5 μM), read-out: CYPs Direct Inhibition Mean (10 μM) 2D6): < 20%
activity weaker than the reference compound (fold) ([3]; IC50 versus reference compound anacetrapib): 10 fold
IC50 ([3]; read-out: IC50 (CETP inhibition)): 380 ± 80 nM
inhibition at 10 min, 10 µM [4]: < 20%
inhibition at 10 min, 10 µM [5]: < 20%
microsomal CLint at 10 μM [6]: 119 µL/min/mg
microsomal CLint at 10 μM [7]: 146 µL/min/mg
